{"source": "patent US9144557B2", "about": "“Hematopoietic growth factor mimetic small molecule compounds and their uses” (Ligand Pharmaceuticals Inc., priority 2009, dated 2015)"}
{"test_system": "UT7/EPO Cell line", "experiment": "Cell Proliferation Assay (UT7/EPO, ViaLight Plus)", "format": "cell-based, human", "details": "proliferative effect; compounds at 10 uM; UT7/EPO cells starved of EPO overnight; 72 hours at 37° C.; ViaLight Plus kit", "how_it_was_run": "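UT7/EPO human leukemia cells (endogenous EPO receptor, EPO-dependent growth) were EPO-starved overnight, then exposed to compounds at 10 uM for 72 hours at 37° C. Proliferation was read out by ATP-based luminescence (ViaLight Plus).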", "units": {"Activity (%)": "%"}}
{"smiles": "O=C(CNC(=O)c1ccc(-c2ccc(C(=O)NCC(=O)Nc3ccc(N4CCOCC4)cc3)cc2)cc1)Nc1ccc(N2CCOCC2)cc1", "note": "[Compound 465, N,N′-bis(2-(4-Morpholinophenylamino)-2-oxoethyl)biphenyl-4,4′-dicarboxamide]", "Activity (%)": 18}
{"smiles": "CN(C)c1ccc(C(=O)Nc2ccc3c(cnn3-c3ccc(NC(=O)c4ccccc4)cc3)c2)cc1", "note": "[Compound 375, N-(1-(4-Benzamidophenyl)-1H-indazol-5-yl)-4-dimethylaminobenzamide]", "Activity (%)": 11}
{"smiles": "O=C(Nc1ccc(C(=O)c2ccc(NC(=O)c3ccno3)cc2)cc1)c1ccc(N2CCOCC2)cc1", "note": "[Compound 600, 4-Morpholino-N-(4-(4-(isoxazole-5-carboxamido)benzoyl)phenyl)benzamide]", "Activity (%)": 11}
{"smiles": "CN(C)c1ccc(C(=O)Nc2ccc3[nH]c(-c4ccc(N(C)C)cc4)nc3c2)cc1", "note": "[Compound 206, 4-(dimethylamino)-N-(2-(4-(dimethylamino)phenyl)-1H-benzo[d]imidazol-5-yl)benzamide]", "Activity (%)": 18}
{"smiles": "O=C(Nc1ccc(Nc2ccc(NC(=O)c3cccc(O)c3)cc2)cc1)c1cccc(O)c1", "note": "[Compound 570, N,N′-(4,4′-Azanediylbis(4,1-phenylene))bis(3-hydroxybenzamide)]", "Activity (%)": 11}
{"smiles": "CN(C)c1ccc(C(=O)N/N=C/c2cc(/C=N/NC(=O)c3ccc(N(C)C)cc3)cc(OCc3ccccc3)c2)cc1", "note": "[Compound 107, (N′,N′″E,N′,N′″E)-N′,N′″-((5-(benzyloxy)-1,3-phenylene)bis(methanylylidene))bis(4-(dimethylamino)benzohydrazide)]", "Activity (%)": 17}
{"smiles": "O=C(Nc1ccc2[nH]c(-c3ccc(N4CCOCC4)cc3)nc2c1)c1ccccc1O", "note": "[Compound 427, N-(2-(4-Morpholinophenyl)-1H-benzimidazol-5-yl)-2-hydroxybenzamide]", "Activity (%)": 15}
{"smiles": "Cn1cccc1C(=O)Nc1ccc(Nc2ccc(NC(=O)c3ccc(N4CCC(CO)CC4)cc3)cc2)cc1", "note": "[Compound 800, N-(4-((4-(4-(4-Hydroxymethylpiperidin-1-yl)benzamido)phenyl)amino)phenyl)-1-methyl-1H-pyrrole-2-carboxamide]", "Activity (%)": 23}
{"smiles": "COc1ccc(-c2nc3cc(NC(=O)c4cccs4)ccc3[nH]2)cc1", "note": "[Compound 210, N-(2-(4-methoxyphenyl)-1H-benzo[d]imidazol-5-yl)thiophene-2-carboxamide]", "Activity (%)": 17}
{"smiles": "CN(C)c1ccc(C(=O)N/N=C/c2cccc(/C=N/NC(=O)c3ccc(N(C)C)cc3)c2)cc1", "note": "[Compound 103, (N′,N′″E,N′,N′″E)-N′,N′″-(1,3-phenylenebis(methanylylidene))bis(4-(dimethylamino)benzohydrazide)]", "Activity (%)": 16}
{"smiles": "COc1ccc(C(=O)Nc2ccc3[nH]c(-c4ccc(N5CCCC5)cc4)nc3c2)cc1", "note": "[Compound 177, 4-Methoxy-N-(2-(4-(pyrrolidin-1-yl)phenyl)-1H-benzo[d]imidazol-5-yl)benzamide]", "Activity (%)": 15}
{"smiles": "CCOC(=O)c1ccc(-n2ncc3cc(NC(=O)c4ccc(N5CCC(O)CC5)cc4)ccc32)cc1", "note": "[Compound 1030, Ethyl 4-(5-(4-(4-hydroxypiperidin-1-yl)benzamido)-1H-indazol-1-yl)benzoate]", "Activity (%)": 10}
{"smiles": "CN(C)c1ccc(NC(=O)c2ccc(-c3nc4cc(C(=O)Nc5ccc(N(C)C)cc5)ccc4[nH]3)cc2)cc1", "note": "[Compound 197, N-(4-(dimethylamino)phenyl)-2-(4-((4-(dimethylamino)phenyl)carbamoyl)phenyl)-1H-benzo[d]imidazole-5-carboxamide]", "Activity (%)": 20}
{"smiles": "CN1CCN(c2ccc(-c3nc4cc(NC(=O)c5ccc(N6CCOCC6)cc5)ccc4[nH]3)cc2)CC1", "note": "[Compound 423, N-(2-(4-(4-Methylpiperazino)phenyl)-1H-benzimidazol-5-yl)-4-morpholinobenzamide]", "Activity (%)": 15}
{"smiles": "O=C(Nc1ccc(N2CCNCC2)cc1)c1ccc(-c2nc3cc(NC(=O)c4ccc(N5CCNCC5)cc4)ccc3[nH]2)cc1", "note": "[Compound 251, 4-(piperazin-1-yl)-N-(2-(4-((4-(piperazin-1-yl)phenyl)carbamoyl)phenyl)-1H-benzo[d]imidazol-5-yl)benzamide]", "Activity (%)": 14}
{"smiles": "NNC(=O)c1ccc(-c2nc3cc(NC(=O)c4ccc(N5CCCC5)cc4)ccc3[nH]2)cc1", "note": "[Compound 230, N-(2-(4-(hydrazinecarbonyl)phenyl)-1H-benzo[d]imidazol-5-yl)-4-(pyrrolidin-1-yl)benzamide]", "Activity (%)": 21}
{"smiles": "O=C(Nc1ccc2[nH]c(-c3cccc(-c4nc5cc(NC(=O)c6ccc(N7CCCC7)cc6)ccc5[nH]4)c3)nc2c1)c1ccc(N2CCCC2)cc1", "note": "[Compound 268, N,N′-(2,2′-(1,3-phenylene)bis(1H-benzo[d]imidazole-5,2-diyl))bis(4-(pyrrolidin-1-yl)benzamide)]", "Activity (%)": 15}
{"smiles": "Cc1ccc(C(=O)Nc2ccc(Nc3ccc(NC(=O)c4ccc(N5CCC(O)CC5)cc4)cc3)c(F)c2)n1C", "note": "[Compound 760, N-(3-Fluoro-4-((4-(4-(4-hydroxypiperidin-1-yl)benzamido)phenyl)amino)phenyl)-1,5-dimethyl-1H-pyrrole-2-carboxamide]", "Activity (%)": 21}
{"smiles": "O=C(Nc1ccc(C(=O)c2ccc(NC(=O)c3ccc[nH]3)cc2)cc1)c1ccc(N2CCCC(CO)C2)cc1", "note": "(racemic) [Compound 700, (±)-N-(4-(4-(4-(3-(Hydroxymethyl)piperidin-1-yl)benzamido)benzoyl)phenyl)-1H-pyrrole-2-carboxamide]", "Activity (%)": 14}
{"smiles": "O=C(Nc1ccc2[nH]c(-c3ccc(N4CCOCC4)nc3)nc2c1)c1ccc(N2CCOCC2)cc1", "note": "[Compound 256, 4-morpholino-N-(2-(6-morpholinopyridin-3-yl)-1H-benzo[d]imidazol-5-yl)benzamide]", "Activity (%)": 12}
{"smiles": "O=C(Nc1ccc2[nH]c(-c3ccc(-c4ccccn4)cc3)nc2c1)c1ccccc1", "note": "[Compound 479, N-(2-(4-(Pyridin-2-yl)phenyl)-1H-benzimidazol-5-yl)benzamide]", "Activity (%)": 15}
